Laboratory results as given in article PMC3141083 (Journal of medicinal chemistry, 2011).

What follows are compounds tested on A549, DU-145, KB, HCT-8 cancer cell lines (assay: Cytotoxicity screen, stated over the panel of four cancer cell lines). Settings: read-out: GI50 (all tested cancer cell lines).
Assay type: cell-based

Compound	GI50 [nM]
COc1ccc2c3c(c4cc(OC)c(OC)cc4c2c1)C[C@@H]1CCOCN1C3 [Compound 14, (R)-12-Oxa-cryptopleurine]	> 1000
COc1ccc2c3c(c4cc(OC)c(OC)cc4c2c1)C[C@H]1CCN(Cc2ccccc2)CN1C3 [Compound 10d]	> 20000
COc1ccc2c3c(c4cc(OC)c(OC)cc4c2c1)C[C@H]1CCOCN1C3 [Compound 13, (S)-12-Oxa-cryptopleurine]	> 1000
COc1ccc2c3c(c4cc(OC)c(OC)cc4c2c1)C[C@H]1CCN(c2ccccc2)CN1C3 [Compound 10b]	> 20000

Same assay, conditions: read-out: average GI50

Compound	GI50 [nM]
COc1ccc2c3c(c4cc(OC)c(OC)cc4c2c1)C[C@H]1CN(c2ccccc2)CN1C3 [Compound 3f]	> 20000

Each compound was assayed on KB (nasopharyngeal) (assay: Cytotoxicity). Settings: KB cell line.
Assay type: cell-based

Compound	GI50 KB [nM]
COc1ccc2c3c(c4cc(OC)c(OC)cc4c2c1)C[C@H]1CCCCCN1C3 [Compound 15]	102 ± 19
COc1ccc2c3c(c4cc(OC)c(OC)cc4c2c1)C[C@H]1CCOCCN1C3 [Compound 16]	68 ± 10
COc1ccc2c3c(c4cc(OC)c(OC)cc4c2c1)C[C@H]1CCCN1C3 [R-antofine, reference compound]	36 ± 8
COc1ccc2c3c(c4cc(OC)c(OC)cc4c2c1)C[C@H]1COCCN1C3 [Compound 11, (S)-13-Oxa-cryptopleurine]	37 ± 9
COc1ccc2c3c(c4cc(OC)c(OC)cc4c2c1)C[C@H]1CCCCN1C3 [crypto-pleurine, R-cryptopleurine, reference compound]	1.51 ± 0.33
